Experimental data published in patent US9528990B2, “Fluorogenic/fluorescent probes derivative from sulfoxanthene, and use thereof” (bioMérieux, priority 2014, dated 2016).
Blank lines part the entries; values can stand above or below the molecule they belong to.

Columns and labels:
[1] = tested on: E. coli K12; experiment: Bacterial azoreduction overnight, compared with Methyl Red; format: cell-based; conditions: 100 μM, overnight 37° C.
Protocol: a) The bacterial reduction of SR101-Q-CO2H was compared to the one of Methyl Red, an azo dye. Each molecule at 100 μM in Trypcase Soya Broth in presence 7.5*10^7 colonies forming unit (cfu) of E. coli K12 was incubated overnight at 37° C. The fluorescence produced by the azoreduction of Methyl Red was measured at 395 nm under an excitation wavelength of 250 nm. The fluorescence produced by the azoreduction of SR101-Q-CO2H was measured at 580 nm under an excitation wavelength of 550 nm. For Methyl Red the ratio between medium with and without bacteria was 469/184 (×2.5). For SR101-Q-CO2H, it was 19 times upper: 17269/363 (×48).

[2] = tested on: pig liver esterase (PLE); experiment: Kinetic study with carboxylesterase; format: biochemical; conditions: about 5 μM, PBS pH 7.4, 10 units PLE, 37° C.; ex 540 nm (SR101-NaphtOAc) or 530 nm (SR101-NaphtO-lauric acid)
Protocol: 1. A kinetic study of SR101-NaphtOAc was carried out by incubating this fluorogenic substrate, previously solubilized in phosphate buffered saline (pH 7.4) at a concentration of about 5 μM, with 10 units of pig liver esterase (PLE), at 37° C. The evolution of the intensity of fluorescence at 600 nm, emitted under an excitation wavelength of 540 nm, was recorded and is presented in FIG. 5a. 2. A kinetic study of SR101-NaphtO-lauric acid was carried out by incubating this fluorogenic substrate, previously solubilized in phosphate buffered saline (pH 7.4) at a concentration of about 5 μM, with 10 units of pig liver esterase (PLE), at 37° C. The evolution of the intensity of fluorescence at 600 nm, emitted under an excitation wavelength of 530 nm, was recorded and is presented in FIG. 5b.

[3] = tested on: sulfatase from Helix pomatia; experiment: Kinetic study with sulfatase; format: biochemical; conditions: about 10 μM, PBS pH 7.4, 7.8 units sulfatase, 37° C.; ex 540 nm
Protocol: A kinetic study of SR101-NaphtO(SO3H) was carried out by incubating this fluorogenic substrate, previously solubilized in phosphate buffered saline (pH 7.4) at a concentration of about 10 μM, with 7.8 units of a sulfatase from Helix pomatia, at 37° C. The evolution of the intensity of fluorescence at 600 nm, emitted under an excitation wavelength of 540 nm, was recorded and is presented in FIG. 6.

[4] = Chemically simulated myeloperoxidase activity with sodium hypochlorite; conditions: about 10 μM, PBS pH 7.4, 150 equivalents sodium hypochlorite, 25° C.; ex 540 nm
Protocol: A kinetic study of SR101-NaphtO(para-aminophenyl) acid was carried out by incubating this fluorogenic substrate, previously solubilized in phosphate buffered saline (pH 7.4) at a concentration of about 10 μM, with 150 equivalents of sodium hypochlorite, at 25° C.
This chemical procedure using sodium hypochlorite is routinely used to simulate a myeloperoxidase activity (Shepherd et al., Chemistry and Biology, 2007, 14: 1221-1231).
The evolution of the intensity of fluorescence at 650 nm, emitted under an excitation wavelength of 540 nm, was recorded and is presented in FIG. 7.

[5] = molecular target: nitroreductase from Escherichia coli (NfsA) (Escherichia coli, UniProt P17117); experiment: Kinetic study of SR101-NO2 with purified nitroreductase; format: biochemical
Protocol: A kinetic study was carried out by incubating the substrate SR101-NO2 in PBS at 37.5° C., at a concentration of about 5 μM.
Successive additions of NADH and nitroreductase from Escherichia coli (NfsA=4×2.5 μg) were performed and the fluorescence at 575 nm (emission maximum of SR101-110) was measured, under an excitation wavelength of 500 nm.

[6] = tested on: E. coli strain (ATCC 25922); experiment: Reduction of SR101-NO2 by growing E. coli cells, followed by fluorescence; format: cell-based, Escherichia coli; conditions: about 10^6 cfu/ml, Trypcase Soya Broth, 37° C.; 0-100 μM as SR101-110/SR101-NO2 about 10/90; ex 550 nm, em 580 nm (FIG. 1c)
Protocol: The reduction of SR101-NO2 by an E. coli strain (ATCC 25922), known for its nitroreduction ability, was analyzed in fluorescence.
This kinetic study was carried out with an initial concentration of cells around 10^6 cfu/ml, growing in Trypcase Soya Broth at 37° C., in presence of different concentrations of fluorogenic substrate (from 0 μM to 100 μM). For this study, said fluorogenic substrate is used in the form of a SR101-110/SR101-NO2 (with a ratio of about 10/90).
The fluorescence at 580 nm was measured, under an excitation wavelength of 550 nm.

[7] = emitted fluorescence before and after the reduction (FIG. 1b)

nitroreductase from Escherichia coli (NfsA), sequence (P17117 whole entry): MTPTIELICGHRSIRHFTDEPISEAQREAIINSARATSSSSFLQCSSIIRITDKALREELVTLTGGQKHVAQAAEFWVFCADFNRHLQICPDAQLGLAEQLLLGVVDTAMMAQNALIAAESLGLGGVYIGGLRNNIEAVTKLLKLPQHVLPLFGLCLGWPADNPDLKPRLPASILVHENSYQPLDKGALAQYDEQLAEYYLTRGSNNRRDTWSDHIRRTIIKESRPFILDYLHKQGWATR

SMILES: CN(C)c1ccc(/N=N/c2ccccc2C(=O)O)cc1 [Methyl Red]
- fluorescence of medium with bacteria ([1]; Trypcase Soya Broth, 7.5*10^7 cfu, Methyl Red ex 250/em 395 nm, SR101-Q-CO2H ex 550/em 580 nm): 469
- ratio between medium with and without bacteria (×) [1]: 2.5

SMILES: Nc1ccc(Oc2ccc3c4c(ccc3c2)C(c2ccc(S(=O)(=O)O)cc2S(=O)(=O)O)=c2cc3c5c(c2O4)CCC[N+]=5CCC3)cc1 [SR101-NaphtO(para-aminophenyl)]
- fluorescence at 650 nm after addition of sodium hypochlorite [4]: remarkable fluorescence enhancement

SMILES: O=[N+]([O-])c1ccc2c(c1)Oc1c3c4c(cc1=C2c1ccc(S(=O)(=O)O)cc1S(=O)(=O)[O-])CCC[N+]=4CCC3 [SR101-NO2]
- reduction of the substrate by nitroreductase ([5]; 5 μM substrate, total 10 μg enzyme (4×2.5 μg), after an hour of incubation at 37.5° C.): complete reduction
- influence of NADH alone on the evolution of the fluorescence ([5]; NADH 0.5 mM, no enzyme, about 5 μM substrate in PBS, 37.5° C., ex 500 nm, em 575 nm): did not influence
- fluorescence enhancement (factor) [5, 7]: 15
- quenching efficiency [5, 7]: 92%
- nitroreduction by growing cells (fluorescence evolution) [6]: progressive nitroreduction

Further lines, results first:

- fluorescence at 600 nm after addition of the esterase [2]: remarkable fluorescence enhancement
SMILES: CC(=O)Oc1ccc2c3c(ccc2c1)C(c1ccc(S(=O)(=O)[O-])cc1S(=O)(=O)O)=c1cc2c4c(c1O3)CCC[N+]=4CCC2 [SR101-NaphtOAc]

- fluorescence at 600 nm after addition of the esterase [2]: remarkable fluorescence enhancement
SMILES: CCCCCCCCCCCC(=O)Oc1ccc2c3c(ccc2c1)C(c1ccc(S(=O)(=O)O)cc1S(=O)(=O)O)=c1cc2c4c(c1O3)CCC[N+]=4CCC2 [SR101-NaphtO-lauric acid]

- fluorescence at 600 nm after addition of the sulfatase [3]: remarkable fluorescence enhancement
SMILES: O=S(=O)(O)Oc1ccc2c3c(ccc2c1)C(c1ccc(S(=O)(=O)[O-])cc1S(=O)(=O)O)=c1cc2c4c(c1O3)CCC[N+]=4CCC2 [SR101-NaphtO(SO3H)]
